Measured values published in US8754073B2, “Substituted piperazino-dihydrothienopyrimidines” (Boehringer Ingelheim International GmbH, priority 2007, dated 2014).
Counter-ions that a name gives are not always drawn.

Target: PDE4B (Homo sapiens, UniProt Q07343)
Assay: Scintillation Proximity Assay (SPA) of PDE4B enzyme activity ([H3]-cAMP cleavage)
Assay type: biochemical
Settings: test substance 1 μM
Procedure: The inhibitions (in %) at 1 μM of the individual Example substances are given in the following Table of Examples and were determined as follows:
The Scintillation Proximity Assay (SPA) (GE Healthcare, No. TRKQ7090) was carried out by using the different affinities of cyclic 3′-5′-adenosinemonophosphate (cAMP, low affinity) and linear 5′-adenosinemonophosphate (AMP, high affinity) for yttrium silicate scintillator beads. The cAMP specific phosphodiesterase (PDE) PDE4B cleaves the 3′-phosphoester bond of tritium-labelled [H3]-cAMP to form [H3]-5′-AMP. This [H3]-AMP accumulates on the scintillator beads because of its higher affinity for them and causes scintillation events (flashes of light) which are measured in a Wallac Microbeta Scintillation Counter.
The experiment starts with a one-hour incubation of [H3]-cAMP with the PDE4B enzyme in assay buffer at 30° C., in each case once with the Example substance to be tested (in a concentration of 1 μM) and once without the Example substance to be tested.
After this incubation, the reaction is stopped by the addition of the beads. The beads have an opportunity to settle in the next 45 minutes, then the measurement is carried out in the Scintillation Counter. If the substance is capable of inhibiting the enzymatic activity of the PDE4B, less [H3]-AMP is produced during the incubation phase and fewer scintillation events can be measured.

[1] = one-hour incubation with [H3]-cAMP at 30° C.
[2] = one-hour incubation of [H3]-cAMP with PDE4B enzyme at 30° C.

Chain of PDE4B (Q07343 whole entry, species assumed): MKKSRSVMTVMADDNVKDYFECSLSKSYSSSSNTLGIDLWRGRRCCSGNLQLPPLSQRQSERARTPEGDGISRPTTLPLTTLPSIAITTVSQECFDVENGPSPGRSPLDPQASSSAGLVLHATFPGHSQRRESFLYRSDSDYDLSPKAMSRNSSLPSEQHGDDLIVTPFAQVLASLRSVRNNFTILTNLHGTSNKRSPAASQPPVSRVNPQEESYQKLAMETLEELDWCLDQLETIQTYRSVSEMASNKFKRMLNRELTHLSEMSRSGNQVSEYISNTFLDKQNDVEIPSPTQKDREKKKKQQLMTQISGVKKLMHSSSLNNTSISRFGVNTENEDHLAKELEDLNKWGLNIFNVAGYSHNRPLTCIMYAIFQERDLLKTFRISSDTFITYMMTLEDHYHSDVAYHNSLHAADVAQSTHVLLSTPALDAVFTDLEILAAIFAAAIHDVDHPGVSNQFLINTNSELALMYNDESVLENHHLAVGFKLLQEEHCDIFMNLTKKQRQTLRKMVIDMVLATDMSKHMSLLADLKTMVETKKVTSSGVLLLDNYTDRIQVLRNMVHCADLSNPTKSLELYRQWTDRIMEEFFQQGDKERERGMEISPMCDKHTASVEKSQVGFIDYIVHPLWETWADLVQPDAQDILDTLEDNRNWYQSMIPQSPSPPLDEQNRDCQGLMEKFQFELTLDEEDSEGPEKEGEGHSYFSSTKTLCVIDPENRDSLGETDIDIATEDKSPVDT

Compound	inhibition at 1 µM [1]	inhibition at 1 µM [2]
CC(C)[C@H](CO)Nc1nc(N2CCC3(CC2)OCc2ccccc23)nc2c1[S+]([O-])CC2 (stereo partly drawn) [Example 156]		64%
CN1C[C@@H](Nc2nc(N3CCC(c4cc(-c5ccco5)n[nH]4)CC3)nc3c2[S+]([O-])CC3)CCC1=O (stereo partly drawn) [Example 190]	97%	
CC(C)[C@H](CO)Nc1nc(N2CCC(c3nc(-c4ccncc4)no3)CC2)nc2c1[S+]([O-])CC2 (stereo partly drawn) [Example 163, (R)-3-Methyl-2-{5-Oxo-2-[4-(3-Pyridin-4-Yl-[1,2,4]Oxadiazol-5-Yl)-Piperidin-1-Yl]-6,7-Dihydro-5H-5λ^4-Thieno[3,2-d]Pyrimidin-4-Ylamino}-Butan-1-Ol Trifluoroacetate]		92%
CC(C)[C@H](CO)Nc1nc(N2CCC(c3noc4ccc(F)cc34)CC2)nc2c1[S+]([O-])CC2 (stereo partly drawn) [Example 153]		95%
[O-][S+]1CCc2nc(N3CCC(c4cc(Cl)cc(Cl)c4)CC3)nc(NC3(CO)CC3)c21 (stereo not drawn) [Example 91, (1-{2-[4-(3,5-Dichlorophenyl)-Piperidin-1-Yl]-5-Oxo-6,7-Dihydro-5H-5λ^4-Thieno[3,2-d]Pyrimidin-4-Ylamino}-Cyclopropyl)-Methanol]		94%
COc1ccc(C2CCN(c3nc4c(c(Nc5cccc(F)c5)n3)[S+]([O-])CC4)CC2)cc1 (stereo not drawn) [Example 133]		95%
[O-][S+]1CCc2nc(N3CCC(c4nc5ccc(Cl)cc5[nH]4)CC3)nc(NC3CCOCC3)c21 (stereo not drawn) [Example 191]	96%	
CC(C)[C@H](CO)Nc1nc(N2CCC(c3cccc(O)c3)CC2)nc2c1[S+]([O-])CC2 (stereo partly drawn) [Example 17]		93%
[O-][S+]1CCc2nc(N3CCC(c4cccc(O)c4)CC3)nc(NC3(CO)CC3)c21 (stereo not drawn) [Example 32]		96%
CN1C[C@@H](Nc2nc(N3CCC(c4cc5ccccc5o4)CC3)nc3c2[S+]([O-])CC3)CCC1=O (stereo partly drawn) [Example 187]	98%	
Cc1cccc(C2CCN(c3nc4c(c(NC5(CO)CC5)n3)[S+]([O-])CC4)CC2)c1 (stereo not drawn) [Example 8]		93%
CN1C[C@@H](Nc2nc(N3CCC(c4nc5ccccc5o4)CC3)nc3c2[S+]([O-])CC3)CCC1=O (stereo partly drawn) [Example 100, (S)-5-[2-(4-Benzoxazol-2-Yl-Piperidin-1-Yl)-5-Oxo-6,7-Dihydro-5H-5λ^4-Thieno[3,2-d]Pyrimidin-4-Ylamino]-1-Methylpiperidin-2-One]		97%
CC(C)[C@H](CO)Nc1nc(N2CCC(c3ccc4ccccc4c3)CC2)nc2c1[S+]([O-])CC2 (stereo partly drawn) [Example 158]		94%
[O-][S+]1CCc2nc(N3CCC(c4nc5cc(F)ccc5[nH]4)CC3)nc(NC3CCOCC3)c21 (stereo not drawn) [Example 209]	95%	
CC(C)c1noc(C2CCN(c3nc4c(c(NC5CCOCC5)n3)[S+]([O-])CC4)CC2)n1 (stereo not drawn) [Example 129]		93%
CN1C[C@@H](Nc2nc(N3CCC(c4c[nH]c5ccccc45)CC3)nc3c2[S+]([O-])CC3)CCC1=O (stereo partly drawn) [Example 41]		97%

Compound	inhibition at 1 µM [1]	inhibition at 1 µM [2]
[O-][S+]1CCc2nc(N3CCC(c4nc5ccccc5o4)CC3)nc(NC3(CO)CC3)c21 (stereo not drawn) [Example 98, {1-[2-(4-Benzoxazol-2-Yl-Piperidin-1-Yl)-5-Oxo-6,7-Dihydro-5H-5λ^4-Thieno[3,2-d]Pyrimidin-4-Ylamino]-Cyclopropyl}-Methanol]		97%
O=C1Nc2ccccc2C2(CCN(c3nc4c(c(NC5CCOCC5)n3)[S+]([O-])CC4)CC2)O1 (stereo not drawn) [Example 65]		94%
[O-][S+]1CCc2nc(N3CCC(c4ccc(Br)cc4)CC3)nc(NC3CCOCC3)c21 (stereo not drawn) [Example 93, {2-[4-(4-Bromophenyl)-Piperidin-1-Yl]-5-Oxo-6,7-Dihydro-5H-5λ^4-Thieno[3,2-d]Pyrimidine-4-Yl}-(Tetrahydropyran-4-Yl)-Amine]		94%
N#Cc1ccc(C2CCN(c3nc4c(c(Nc5cccc(F)c5)n3)[S+]([O-])CC4)CC2)cc1 (stereo not drawn) [Example 79]		96%
[O-][S+]1CCc2nc(N3CCC(c4nc5ccncc5[nH]4)CC3)nc(NC3CCOCC3)c21 (stereo not drawn) [Example 213]	88%	
CC(=O)NCC1(c2ccccc2)CCN(c2nc3c(c(N[C@H]4CCC(=O)N(C)C4)n2)[S+]([O-])CC3)CC1 (stereo partly drawn) [Example 204, N-{1-[4-(1-methyl-6-oxopiperidin-3-ylamino)-5-oxo-6,7-dihydro-5H-5λ^4-thieno[3,2-d]pyrimidin-2-yl]-4-phenylpiperidin-4-ylmethyl}-acetamide]	96%	
COC(=O)c1cccc(C2CCN(c3nc4c(c(N[C@@H](CO)C(C)C)n3)[S+]([O-])CC4)CC2)c1 (stereo partly drawn) [Example 151]		94%
[O-][S+]1CCc2nc(N3CCC(c4ccncc4)CC3)nc(NC3CCOCC3)c21 (stereo not drawn) [Example 63]		92%
[O-][S+]1CCc2nc(N3CCC4(CC3)OCc3ccccc34)nc(NC3(CO)CC3)c21 (stereo not drawn) [Example 109]		75%
Cc1noc(C2CCN(c3nc4c(c(Nc5cccc(F)c5)n3)[S+]([O-])CC4)CC2)n1 (stereo not drawn) [Example 83]		96%
[O-][S+]1CCc2nc(N3CCC(c4cc(-c5ccco5)n[nH]4)CC3)nc(NC3(CO)CC3)c21 (stereo not drawn) [Example 114]		96%
[O-][S+]1CCc2nc(N3CCC(c4ccc5ccccc5c4)CC3)nc(Nc3cccc(F)c3)c21 (stereo not drawn) [Example 142]		94%
CS(=O)(=O)N1CC2(CCN(c3nc4c(c(NC5(CO)CC5)n3)[S+]([O-])CC4)CC2)c2ccccc21 (stereo not drawn) [Example 30]		89%
[O-][S+]1CCc2nc(N3CCC(c4cc5ccccc5o4)CC3)nc(NC3CCOCC3)c21 (stereo not drawn) [Example 126]		96%
[O-][S+]1CCc2nc(N3CCC(c4noc5ccccc45)CC3)nc(Nc3cccc(F)c3)c21 (stereo not drawn) [Example 75, [2-(4-Benzo[d]Isoxazol-3-Yl-Piperidin-1-Yl)-5-Oxo-6,7-6,7-Dihydro-5H-5λ^4-Thieno[3,2-d]Pyrimidin-4-Yl]-(3-Fluorophenyl)-Amine]		97%

Next, values leading:

inhibition at 1 µM [1]	inhibition at 1 µM [2]	Compound
92%		[O-][S+]1CCc2nc(N3CCC(Oc4ccc(Cl)cc4)CC3)nc(NC3CCOCC3)c21 (stereo not drawn) [Example 271]
94%		Cc1nn(C)cc1C(C)NC(=O)c1ccc(C2CCN(c3nc4c(c(NC5CCOCC5)n3)[S+]([O-])CC4)CC2)cc1 (stereo not drawn) [Example 218]
93%		NC1CC1Nc1nc(N2CCC(c3ccc(Cl)cc3)CC2)nc2c1[S+]([O-])CC2 (stereo not drawn) [Example 233, N-{2-[4-(4-Chlorophenyl)-Piperidin-1-Yl]-5-Oxo-6,7-Dihydro-5H-5λ^4-Thieno[3,2-d]Pyrimidin-4-Yl}-Cyclopropan-1,2-Diamine]
78%		CC(C)c1ccc(OC2CCN(c3nc4c(c(N[C@H]5CCC(=O)N(C)C5)n3)[S+]([O-])CC4)CC2)cc1 (stereo partly drawn) [Example 267]
95%		Cc1oc(C2CCN(c3nc4c(c(N[C@H]5CCC(=O)N(C)C5)n3)[S+]([O-])CC4)CC2)nc1-c1ccccc1 (stereo partly drawn) [Example 275, 1-methyl-5-{2-[4-(5-methyl-4-phenyloxazol-2-yl)-piperidin-1-yl]-5-oxo-6,7-dihydro-5H-5λ^4-thieno[3,2-d]pyrimidin-4-ylamino}-piperidin-2-one]
94%		Cc1nn(C)cc1CNC(=O)c1ccc(C2CCN(c3nc4c(c(NC5CCOCC5)n3)[S+]([O-])CC4)CC2)cc1 (stereo not drawn) [Example 262]
90%		Cc1nn(C)cc1C(C)NC(=O)c1cccc(C2CCN(c3nc4c(c(NC5CCOCC5)n3)[S+]([O-])CC4)CC2)c1 (stereo not drawn) [Example 251]
	56%	O=S1(=O)CCc2nc(N3CCC(c4ccc(Cl)cc4)CC3)nc(NC3(CO)CC3)c21 [Example 333, (1-{2-[4-(4-chlorophenyl)-piperidin-1-yl]-5.5-dioxo-6,7-dihydro-5H-5λ^6-thieno[3,2-d]pyrimidin-4-ylamino}-cyclopropyl)-methanol]
93%		CN(C(=O)c1cccc(C2CCN(c3nc4c(c(NC5CCOCC5)n3)[S+]([O-])CC4)CC2)c1)C1CC1 (stereo not drawn) [Example 249, N-cyclopropyl-N-methyl-3-{1-[5-oxo-4-(tetrahydropyran-4-ylamino)-6,7-dihydro-5H-5λ^4-thieno[3,2-d]pyrimidin-2-yl]-piperidin-4-yl}-benzamide]
93%		CN1C[C@@H](Nc2nc(N3CCC(CO)(c4ccc(Cl)cc4)CC3)nc3c2[S+]([O-])CC3)CCC1=O (stereo partly drawn) [Example 246, 5-{2-[4-(4-Chlorophenyl)-4-Hydroxymethylpiperidin-1-Yl]-5-Oxo-6,7-Dihydro-5H-5λ^4-Thieno[3,2-d]Pyrimidin-4-Ylamino}-1-Methyl Piperidin-2-One]
89%		[O-][S+]1CCc2nc(N3CCC(O)(c4ccc(Cl)cc4)CC3)nc(NC3CCOCC3)c21 (stereo not drawn) [Example 288]
68%		N[C@@H]1CC1Nc1nc(N2CCC(c3ccc(Cl)cc3)CC2)nc2c1[S+]([O-])CC2 (stereo partly drawn) [Example 245, N-{2-[4-(4-Chlorophenyl)-Piperidin-1-Yl]-5-Oxo-6,7-Dihydro-5H-5λ^4-Thieno[3,2-d]Pyrimidin-4-Yl}-Cyclopropan-1,2-Diamine]
87%		CC(C)N1CCc2ccc(OC3CCN(c4nc5c(c(NC6CCOCC6)n4)[S+]([O-])CC5)CC3)cc2CC1 (stereo not drawn) [Example 235]
80%		COCC(=O)NCC1(c2ccccc2)CCN(c2nc3c(c(NC4(CO)CC4)n2)[S+]([O-])CC3)CC1 (stereo not drawn) [Example 216]
